According to patent US20260248087A1, “GENERATING DOUBLED HAPLOID PLANTS” (Syngenta Crop Protection AG, priority 2023, published 2026):

Tested on: isolated embryos
Assay: Potted rate, transplant rate and seedling height, thiamethoxam co-treatment during colchicine doubling
Type: in vivo, maize
From the text: As used herein, the term “potted rate” or “potting rate” refers to the percent of germinated embryos successfully transferred to soil from total treated haploid embryos. The “potted rate” is used as an indication of plant health in monitoring the success of recovery and growth after treatment of haploids. As used herein, the term “transplant rate” refers to the survival of healthy plants after embryos were germinated and transferred to soil.
In addition to testing of safeners such as metcamifen, testing the effects of other compounds, such as thiamethoxam (TMX), were completed. Isolated embryos were co-treated with TMX during colchicine doubling in the doubling media. The co-treatments were allowed to incubate for 24 or 48 hours. Four genotypes representing two heterotic groups were tested with replication. The effect on potting rate from in vitro culture was evaluated.
Initial testing measured the effect of TMX at concentrations of 0, 150, or 750 mg/L for 24 or 48 hours. […] The strongest effect of TMX co-treatment seen with the 48-hour duration was at 750 mg/L TMX compared to the control.
Further testing was done and TMX was applied to isolated embryos at levels of 0, 750, 1500, 2000 mg/L during colchicine co-treatment. The co-treatments were incubated for 24 or 48 hours.
TMX was applied to isolated embryos at levels of 0, 2000, 4000, 8000 mg/L during colchicine co-treatment. The co-treatments were incubated for durations of 24 or 48 hours.
TMX was applied to isolated embryos at levels of 0, 2000, 4000, or 6000 mg/L during colchicine co-treatment. The co-treatments were incubated for durations of 24 or 48 hours. […] The highest percent transplanted rates were 86% and 83% for co-treatments 4000 mg/L at 24 hours and 6000 mg/L at 48 hours, respectively (see Table 8).

[1] = Table 6: co-treatment with colchicine, TMX 750 mg/L, 24 hours
[2] = Table 6: co-treatment with colchicine, TMX 750 mg/L, 48 hours
[3] = Table 6: co-treatment with colchicine, TMX 1500 mg/L, 24 hours
[4] = Table 6: co-treatment with colchicine, TMX 1500 mg/L, 48 hours
[5] = Table 6: co-treatment with colchicine, TMX 2000 mg/L, 24 hours
[6] = Table 6: co-treatment with colchicine, TMX 2000 mg/L, 48 hours
[7] = Table 7: co-treatment with colchicine, TMX 2000 mg/L, 24 hours
[8] = Table 7: co-treatment with colchicine, TMX 2000 mg/L, 48 hours
[9] = Table 7: co-treatment with colchicine, TMX 4000 mg/L, 24 hours
[10] = Table 7: co-treatment with colchicine, TMX 4000 mg/L, 48 hours
[11] = Table 7: co-treatment with colchicine, TMX 8000 mg/L, 24 hours
[12] = Table 7: co-treatment with colchicine, TMX 8000 mg/L, 48 hours
[13] = Table 8: co-treatment with colchicine, TMX 2000 mg/L, 24 hours
[14] = Table 8: co-treatment with colchicine, TMX 2000 mg/L, 48 hours
[15] = Table 8: co-treatment with colchicine, TMX 4000 mg/L, 24 hours
[16] = Table 8: co-treatment with colchicine, TMX 4000 mg/L, 48 hours
[17] = Table 8: co-treatment with colchicine, TMX 6000 mg/L, 24 hours
[18] = Table 8: co-treatment with colchicine, TMX 6000 mg/L, 48 hours

CN1COCN(Cc2cnc(Cl)s2)/C1=N\[N+](=O)[O-] [TMX, thiamethoxam]
Potted Rate Mean [1]: 52% | Transplant Rate Mean [1]: 33% | Potted Rate Mean [2]: 12% | Transplant Rate Mean [2]: 9% | Potted Rate Mean [3]: 65% | Transplant Rate Mean [3]: 41% | Potted Rate Mean [4]: 18% | Transplant Rate Mean [4]: 12% | Potted Rate Mean [5]: 74% | Transplant Rate Mean [5]: 50% | Potted Rate Mean [6]: 32% | Transplant Rate Mean [6]: 21% | Potted Rate Mean [7]: 76% | Transplant Rate Mean [7]: 73% | Potted Rate Mean [8]: 22% | Transplant Rate Mean [8]: 15% | Potted Rate Mean [9]: 82% | Transplant Rate Mean [9]: 79% | Potted Rate Mean [10]: 67% | Transplant Rate Mean [10]: 61% | Potted Rate Mean [11]: 47% | Transplant Rate Mean [11]: 45% | Potted Rate Mean [12]: 20% | Transplant Rate Mean [12]: 16% | Potted Rate Mean [13]: 68% | Transplant Rate Mean [13]: 62% | Potted Rate Mean [14]: 27% | Transplant Rate Mean [14]: 26% | Potted Rate Mean [15]: 90% | Transplant Rate Mean [15]: 86% | Potted Rate Mean [16]: 63% | Transplant Rate Mean [16]: 56% | Potted Rate Mean [17]: 86% | Transplant Rate Mean [17]: 74% | Potted Rate Mean [18]: 89% | Transplant Rate Mean [18]: 83% | Seedling height (overall plant height) (initial testing, TMX 150 or 750 mg/L, 24-hour and 48-hour): taller | potting rate (initial testing, TMX 150 or 750 mg/L, 24-hour co-treatment): ≥ 80%
